Consider eight compounds from US10004701B2, “Methods and compositions for treating infection” (UNIVERSITY OF ROCHESTER, priority 2012, dated 2018).

Counter-ions that a name gives are not always drawn. Like-named read-outs stand apart in the source and are kept apart here.

What all share (assay): AK assay 384-well format, Prestwick library screening
One test deals with E. coli. Format: cell-based, Escherichia coli. The following applies: for fold induction at 50 µM: Escherichia coli, 3 h.
In a further test the test system is K. pneumoniae. Type of test: cell-based, Klebsiella pneumoniae. The following applies: for fold induction at 50 µM: Klebsiella pneumoniae, 3 h.
Another test deals with E. cloacae. Type of test: cell-based, Enterobacter cloacae. The settings on record: for fold induction at 50 µM: Enterobacter cloacae, 3 h.
The next test concerns P. aeruginosa. Type of test: cell-based, Pseudomonas aeruginosa. The following applies: for fold induction at 50 µM: Pseudomonas aeruginosa, 3 h.
In a further test the test system is E. faecium. Format: cell-based, Enterococcus faecium. The settings on record: for fold induction at 50 µM: Enterococcus faecium, 3 h.
In test [1] the test system is A. baumannii strain 98-37-09. Format: cell-based, Acinetobacter baumannii. The following applies: for fold induction at 50 µM: Acinetobacter baumannii, 983709, 3 h.
Test [2] relates to S. aureus strain USA300-0114. Format: cell-based, Staphylococcus aureus. The following applies: for fold induction at 50 µM: Staphylococcus aureus, USA300, 3 h.

In the case of `CCCC(C)(COC(N)=O)COC(=O)NC(C)C` (centres unmarked) [Carisoprodol], the fold induction at 50 µM in the test on E. coli (planktonic E. coli, 50 μM final drug concentration, […], read-out: AK-based Prestwick Library Screening Results, E. coli (increase in extracellular AK activity)) amounted to 0.9; in the test with K. pneumoniae (planktonic K. pneumoniae, 50 μM final drug concentration, […], read-out: AK-based Prestwick Library Screening Results, K. pneumoniae (increase in extracellular AK activity)) it was 0.6; with E. cloacae (planktonic E. cloacae, 50 μM final drug concentration, […], read-out: AK-based Prestwick Library Screening Results, E. cloacae (increase in extracellular AK activity)), 0.8; in the test on P. aeruginosa (planktonic P. aeruginosa, 50 μM final drug concentration, […], read-out: AK-based Prestwick Library Screening Results, P. aeruginosa (increase in extracellular AK activity)), 0.9; in the test with E. faecium (planktonic E. faecium, 50 μM final drug concentration, […], read-out: AK-based Prestwick Library Screening Results, E. faecium (increase in extracellular AK activity)), 0.9; in test [1] (planktonic A. baumannii, 50 μM final drug concentration, […], read-out: AK-based Prestwick Library Screening Results, A. baumannii (increase in extracellular AK activity)), 0.8. The fold induction at 50 µM in test [2] (planktonic S. aureus, 50 μM final drug concentration, […], read-out: AK-based Prestwick Library Screening Results, S. aureus (increase in extracellular AK activity)) was 0.7.

Turning to `CCOC(=O)OC(C)OC(=O)[C@@H]1N2C(=O)[C@@H](NC(=O)[C@H](N)c3ccccc3)[C@H]2SC1(C)C` (some centres unmarked) [Bacampicillin hydrochloride], the fold induction at 50 µM with E. coli (planktonic E. coli, 50 μM final drug concentration, cutoff for positive-scoring molecules 3-fold increase, read-out: AK-based Prestwick Library Screening Results, E. coli (increase in extracellular AK activity)) came out at 11.9; in the test on K. pneumoniae (planktonic K. pneumoniae, 50 μM final drug concentration, cutoff for positive-scoring molecules 3-fold increase, read-out: AK-based Prestwick Library Screening Results, K. pneumoniae (increase in extracellular AK activity)) it was 0.6; with E. cloacae (planktonic E. cloacae, 50 μM final drug concentration, cutoff for positive-scoring molecules 3-fold increase, read-out: AK-based Prestwick Library Screening Results, E. cloacae (increase in extracellular AK activity)), 0.6; with P. aeruginosa (planktonic P. aeruginosa, 50 μM final drug concentration, cutoff for positive-scoring molecules 3-fold increase, read-out: AK-based Prestwick Library Screening Results, P. aeruginosa (increase in extracellular AK activity)), 0.6; with E. faecium (planktonic E. faecium, 50 μM final drug concentration, cutoff for positive-scoring molecules 3-fold increase, read-out: AK-based Prestwick Library Screening Results, E. faecium (increase in extracellular AK activity)), 1.1; in test [1] (planktonic A. baumannii, 50 μM final drug concentration, cutoff for positive-scoring molecules 3-fold increase, read-out: AK-based Prestwick Library Screening Results, A. baumannii (increase in extracellular AK activity)), 1.3. For the same compound, the fold induction at 50 µM in test [2] (planktonic S. aureus, 50 μM final drug concentration, cutoff for positive-scoring molecules 3-fold increase, read-out: AK-based Prestwick Library Screening Results, S. aureus (increase in extracellular AK activity)) is 0.5.

`O=c1[nH]c(=O)n([C@H]2C[C@H](O)[C@@H](CO)O2)cc1C(F)(F)F` [Trifluridine]: the fold induction at 50 µM in the test on E. coli (planktonic E. coli, 50 μM final drug concentration, […], read-out: AK-based Prestwick library screening result, E. coli (fold increase in extracellular AK activity)) amounted to 0.9; in the test with K. pneumoniae (planktonic K. pneumoniae, 50 μM final drug concentration, […], read-out: AK-based Prestwick library screening result, K. pneumoniae (fold increase in extracellular AK activity)), 1.1; in the test with E. cloacae (planktonic E. cloacae, 50 μM final drug concentration, […], read-out: AK-based Prestwick library screening result, E. cloacae (fold increase in extracellular AK activity)), 0.7; with P. aeruginosa (planktonic P. aeruginosa, 50 μM final drug concentration, […], read-out: AK-based Prestwick library screening result, P. aeruginosa (fold increase in extracellular AK activity)) it was 0.6; in the test with E. faecium (planktonic E. faecium, 50 μM final drug concentration, […], read-out: AK-based Prestwick library screening result, E. faecium (fold increase in extracellular AK activity)), 0.9; in test [1] (planktonic A. baumannii, 50 μM final drug concentration, […], read-out: AK-based Prestwick library screening result, A. baumannii (fold increase in extracellular AK activity)), 1.1. Moreover, the fold induction at 50 µM in test [2] (planktonic S. aureus, 50 μM final drug concentration, […], read-out: AK-based Prestwick library screening result, S. aureus (fold increase in extracellular AK activity)) worked out at 0.7.

For `O=C(CCNNC(=O)c1ccncc1)NCc1ccccc1` [Nialamide], the fold induction at 50 µM in the test with E. coli (planktonic E. coli, 50 μM final drug concentration, positive cutoff 3-fold increase, read-out: AK-based Prestwick library screening result, E. coli (fold increase in extracellular AK activity)) amounted to 1.2; with K. pneumoniae (planktonic K. pneumoniae, 50 μM final drug concentration, positive cutoff 3-fold increase, read-out: AK-based Prestwick library screening result, K. pneumoniae (fold increase in extracellular AK activity)) it was 0.9; in the test on E. cloacae (planktonic E. cloacae, 50 μM final drug concentration, positive cutoff 3-fold increase, read-out: AK-based Prestwick library screening result, E. cloacae (fold increase in extracellular AK activity)) it was 1.4; in the test with P. aeruginosa (planktonic P. aeruginosa, 50 μM final drug concentration, positive cutoff 3-fold increase, read-out: AK-based Prestwick library screening result, P. aeruginosa (fold increase in extracellular AK activity)) it was 1.2; in the test with E. faecium (planktonic E. faecium, 50 μM final drug concentration, positive cutoff 3-fold increase, read-out: AK-based Prestwick library screening result, E. faecium (fold increase in extracellular AK activity)), 1.1; in test [1] (planktonic A. baumannii, 50 μM final drug concentration, positive cutoff 3-fold increase, read-out: AK-based Prestwick library screening result, A. baumannii (fold increase in extracellular AK activity)), 1. The fold induction at 50 µM in test [2] (planktonic S. aureus, 50 μM final drug concentration, positive cutoff 3-fold increase, read-out: AK-based Prestwick library screening result, S. aureus (fold increase in extracellular AK activity)) came to 1.2.

With Deptropine citrate, the “AK-based Prestwick library screening result, E. coli (fold increase in extracellular AK activity)” value in the test with E. coli (planktonic E. coli, 50 μM final drug concentration, […]) was 1.5. Also, the “AK-based Prestwick library screening result, K. pneumoniae (fold increase in extracellular AK activity)” value in the test on K. pneumoniae (planktonic K. pneumoniae, 50 μM final drug concentration, […]) stood at 0.9. In addition, in the test with E. cloacae (planktonic E. cloacae, 50 μM final drug concentration, […]), the “AK-based Prestwick library screening result, E. cloacae (fold increase in extracellular AK activity)” value came to 1.6. Further, the “AK-based Prestwick library screening result, P. aeruginosa (fold increase in extracellular AK activity)” value in the test on P. aeruginosa (planktonic P. aeruginosa, 50 μM final drug concentration, […]) stood at 1.0. Besides, the “AK-based Prestwick library screening result, E. faecium (fold increase in extracellular AK activity)” value in the test on E. faecium (planktonic E. faecium, 50 μM final drug concentration, […]) came out at 1.1. Moreover, the “AK-based Prestwick library screening result, A. baumannii (fold increase in extracellular AK activity)” value in test [1] (planktonic A. baumannii, 50 μM final drug concentration, […]) is 1.3. Further, the “AK-based Prestwick library screening result, S. aureus (fold increase in extracellular AK activity)” value in test [2] (planktonic S. aureus, 50 μM final drug concentration, […]) amounted to 1.1.

On to Cytisine (−), for which the “AK-based Prestwick Library Screening Results, E. coli (fold increase in extracellular AK activity)” value with E. coli is listed as 1.3. Further, the “AK-based Prestwick Library Screening Results, K. pneumoniae (fold increase in extracellular AK activity)” value in the test with K. pneumoniae is 1.2. The “AK-based Prestwick Library Screening Results, E. cloacae (fold increase in extracellular AK activity)” value in the test on E. cloacae is 1.5. Besides, the “AK-based Prestwick Library Screening Results, P. aeruginosa (fold increase in extracellular AK activity)” value with P. aeruginosa came out at 1.2. For the same compound, the “AK-based Prestwick Library Screening Results, E. faecium (fold increase in extracellular AK activity)” value with E. faecium stood at 1.0. For the same compound, the “AK-based Prestwick Library Screening Results, A. baumannii (fold increase in extracellular AK activity)” value in test [1] is listed as 1.4. Moreover, in test [2], the “AK-based Prestwick Library Screening Results, S. aureus (fold increase in extracellular AK activity)” value is given as 1.0.

Regarding `CCN(CC)CC#CCOC(=O)C(O)(c1ccccc1)C1CCCCC1` (centres unmarked) [Oxybutynin chloride], the fold induction at 50 µM in the test with E. coli (planktonic E. coli, 50 μM final drug concentration, 384-well, cutoff for positive-scoring molecules 3-fold increase, read-out: AK-based Prestwick Library Screening Results: E. coli (increase in extracellular AK activity)) worked out at 1.4; in the test on K. pneumoniae (planktonic K. pneumoniae, 50 μM final drug concentration, 384-well, cutoff for positive-scoring molecules 3-fold increase, read-out: AK-based Prestwick Library Screening Results: K. pneumoniae (increase in extracellular AK activity)), 0.9; in the test on E. cloacae (planktonic E. cloacae, 50 μM final drug concentration, 384-well, cutoff for positive-scoring molecules 3-fold increase, read-out: AK-based Prestwick Library Screening Results: E. cloacae (increase in extracellular AK activity)), 1.6; in the test on P. aeruginosa (planktonic P. aeruginosa, 50 μM final drug concentration, 384-well, cutoff for positive-scoring molecules 3-fold increase, read-out: AK-based Prestwick Library Screening Results: P. aeruginosa (increase in extracellular AK activity)) it was 1; in the test with E. faecium (planktonic E. faecium, 50 μM final drug concentration, 384-well, cutoff for positive-scoring molecules 3-fold increase, read-out: AK-based Prestwick Library Screening Results: E. faecium (increase in extracellular AK activity)), 1.1; in test [1] (planktonic A. baumannii, 50 μM final drug concentration, 384-well, cutoff for positive-scoring molecules 3-fold increase, read-out: AK-based Prestwick Library Screening Results: A. baumannii (increase in extracellular AK activity)) it was 1.1. Further, the fold induction at 50 µM in test [2] (planktonic S. aureus, 50 μM final drug concentration, 384-well, cutoff for positive-scoring molecules 3-fold increase, read-out: AK-based Prestwick Library Screening Results: S. aureus (increase in extracellular AK activity)) worked out at 1.2.

As to `CC(C)(Sc1cc(C(C)(C)C)c(O)c(C(C)(C)C)c1)Sc1cc(C(C)(C)C)c(O)c(C(C)(C)C)c1` [Probucol], the fold induction at 50 µM in the test with E. coli (50 μM final drug concentration, planktonic, cutoff for positive 3-fold increase, read-out: AK-based Prestwick Library Screening Results, E. coli (fold increase in extracellular AK activity)) is 1.1; in the test on K. pneumoniae (50 μM final drug concentration, planktonic, cutoff for positive 3-fold increase, read-out: AK-based Prestwick Library Screening Results, K. pneumoniae (fold increase in extracellular AK activity)), 0.9; with E. cloacae (50 μM final drug concentration, planktonic, cutoff for positive 3-fold increase, read-out: AK-based Prestwick Library Screening Results, E. cloacae (fold increase in extracellular AK activity)) it was 1.3; in the test with P. aeruginosa (50 μM final drug concentration, planktonic, cutoff for positive 3-fold increase, read-out: AK-based Prestwick Library Screening Results, P. aeruginosa (fold increase in extracellular AK activity)) it was 1.1; with E. faecium (50 μM final drug concentration, planktonic, cutoff for positive 3-fold increase, read-out: AK-based Prestwick Library Screening Results, E. faecium (fold increase in extracellular AK activity)), 0.9; in test [1] (50 μM final drug concentration, planktonic, cutoff for positive 3-fold increase, read-out: AK-based Prestwick Library Screening Results, A. baumannii (fold increase in extracellular AK activity)), 1.4. In addition, the fold induction at 50 µM in test [2] (50 μM final drug concentration, planktonic, cutoff for positive 3-fold increase, read-out: AK-based Prestwick Library Screening Results, S. aureus (fold increase in extracellular AK activity)) is 0.6.
